Test results taken from PubChem BioAssay AID1598.
pEC50: −log10 of the molar value. Results filed as inconclusive are left out.

Test system: SMN2 vs SMN1 luciferase splicing reporter cells
Assay: enhancers of SMN2 over SMN1 splicing, cell-based, SMN2/SMN1 luciferase reporters (AID 1598)
Conditions: measured here: SMN luciferase EC50 follow-up

Row | Compound | pEC50
1 | CC[C@@]1(O)C(=O)OCc2c1cc1n(c2=O)Cc2cc3ccccc3nc2-1 | 5.60
2 | CC(C(=O)O)c1ccc(N2Cc3ccccc3C2=O)cc1 (configuration not stated) | 6.22
3 | CO[C@@]1(NC(=O)Cc2cccs2)C(=O)N2C(C(=O)O)=C(COC(N)=O)CS[C@@H]21 | 5.60
4 | O[N+]1=CC=CCC1=S.On1ccccc1=S.[Zn] | 5.90
5 | NC12CC3CC(CC(C3)C1)C2 | 6.40
6 | CC[C@@]1(O)C[C@H](OC2CC(N(C)C)C(OC3CC(O)C(OC4CCC(=O)C(C)O4)C(C)O3)C(C)O2)c2c(cc3c(c2O)C(=O)c2c(O)cccc2C3=O)[C@H]1C(=O)OC (some centres not stated) | 5.15
7 | O=C1C=C2C(=CCOC2O)O1 (configuration not stated) | 5.30
